The text below walks through data of ChEMBL document CHEMBL5696442, “Discovery of type II inhibitors of TGFβ-activated kinase 1 (TAK1) and mitogen-activated protein kinase kinase kinase kinase 2 (MAP4K2)” (J Med Chem, 2015).

The source made the active and inactive calls. The calls are words filed in the database; no cut-off is given here.

Assay [1] has as its target Serine/threonine-protein kinase MARK1 (Homo sapiens) (UniProt Q9P0L2). Kind of assay: Inhibition of MARK1 Lys2 labeling site in human A-375 cells at 5 uM by KiNativ Profiling analysis relative to control. Type of assay: cell-based.
Assay [2] deals with Ephrin type-A receptor 8 (Homo sapiens) (UniProt P29322). In words: Inhibition of EPHA8 (unknown origin) at 1 uM by Ambit Kinomescan binding assay relative to control; values are per cent of control.
Sequence of Ephrin type-A receptor 8 (Homo sapiens) (P29322 whole entry): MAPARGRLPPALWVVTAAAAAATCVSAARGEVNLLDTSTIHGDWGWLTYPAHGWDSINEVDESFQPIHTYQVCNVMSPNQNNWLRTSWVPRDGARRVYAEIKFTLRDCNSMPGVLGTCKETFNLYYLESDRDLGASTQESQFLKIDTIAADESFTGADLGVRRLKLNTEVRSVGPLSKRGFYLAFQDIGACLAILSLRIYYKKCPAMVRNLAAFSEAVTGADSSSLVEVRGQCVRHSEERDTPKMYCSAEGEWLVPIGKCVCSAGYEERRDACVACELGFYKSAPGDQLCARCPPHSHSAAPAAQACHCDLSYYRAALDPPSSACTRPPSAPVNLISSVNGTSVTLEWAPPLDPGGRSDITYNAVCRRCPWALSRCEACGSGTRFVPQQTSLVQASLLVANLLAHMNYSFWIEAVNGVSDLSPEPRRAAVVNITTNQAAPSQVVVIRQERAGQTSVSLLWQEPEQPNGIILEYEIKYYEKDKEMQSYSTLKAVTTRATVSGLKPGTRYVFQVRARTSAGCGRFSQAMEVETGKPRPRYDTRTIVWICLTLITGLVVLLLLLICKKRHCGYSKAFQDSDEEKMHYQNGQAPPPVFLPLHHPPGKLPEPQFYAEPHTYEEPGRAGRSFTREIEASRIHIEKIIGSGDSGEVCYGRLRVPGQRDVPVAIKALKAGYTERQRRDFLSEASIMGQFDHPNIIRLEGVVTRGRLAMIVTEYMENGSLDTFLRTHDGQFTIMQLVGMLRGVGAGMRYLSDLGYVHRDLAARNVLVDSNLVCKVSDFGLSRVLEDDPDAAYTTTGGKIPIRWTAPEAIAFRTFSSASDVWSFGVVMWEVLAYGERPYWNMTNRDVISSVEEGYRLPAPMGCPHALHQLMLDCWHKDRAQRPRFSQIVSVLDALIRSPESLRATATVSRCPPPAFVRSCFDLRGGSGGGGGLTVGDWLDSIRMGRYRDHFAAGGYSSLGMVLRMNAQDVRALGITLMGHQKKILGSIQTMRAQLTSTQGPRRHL
The next assay has as its system RAW. In words: Inhibition of LPS induced JNK1/2 phosphorylation in mouse RAW cells preincubated for 1 hr followed by LPS stimulation and measured after 30 mins by Western blot analysis. Type of assay: functional, cell-based. The settings on record: dose 0.01-10 µM.
For assay [3], the target named is Tyrosine-protein kinase Mer (Homo sapiens) (UniProt Q12866). Kind of assay: Inhibition of MERTK (unknown origin) at 10 uM by Ambit Kinomescan binding assay.
Sequence of Tyrosine-protein kinase Mer (Homo sapiens) (Q12866 whole entry, the tested form may be a part): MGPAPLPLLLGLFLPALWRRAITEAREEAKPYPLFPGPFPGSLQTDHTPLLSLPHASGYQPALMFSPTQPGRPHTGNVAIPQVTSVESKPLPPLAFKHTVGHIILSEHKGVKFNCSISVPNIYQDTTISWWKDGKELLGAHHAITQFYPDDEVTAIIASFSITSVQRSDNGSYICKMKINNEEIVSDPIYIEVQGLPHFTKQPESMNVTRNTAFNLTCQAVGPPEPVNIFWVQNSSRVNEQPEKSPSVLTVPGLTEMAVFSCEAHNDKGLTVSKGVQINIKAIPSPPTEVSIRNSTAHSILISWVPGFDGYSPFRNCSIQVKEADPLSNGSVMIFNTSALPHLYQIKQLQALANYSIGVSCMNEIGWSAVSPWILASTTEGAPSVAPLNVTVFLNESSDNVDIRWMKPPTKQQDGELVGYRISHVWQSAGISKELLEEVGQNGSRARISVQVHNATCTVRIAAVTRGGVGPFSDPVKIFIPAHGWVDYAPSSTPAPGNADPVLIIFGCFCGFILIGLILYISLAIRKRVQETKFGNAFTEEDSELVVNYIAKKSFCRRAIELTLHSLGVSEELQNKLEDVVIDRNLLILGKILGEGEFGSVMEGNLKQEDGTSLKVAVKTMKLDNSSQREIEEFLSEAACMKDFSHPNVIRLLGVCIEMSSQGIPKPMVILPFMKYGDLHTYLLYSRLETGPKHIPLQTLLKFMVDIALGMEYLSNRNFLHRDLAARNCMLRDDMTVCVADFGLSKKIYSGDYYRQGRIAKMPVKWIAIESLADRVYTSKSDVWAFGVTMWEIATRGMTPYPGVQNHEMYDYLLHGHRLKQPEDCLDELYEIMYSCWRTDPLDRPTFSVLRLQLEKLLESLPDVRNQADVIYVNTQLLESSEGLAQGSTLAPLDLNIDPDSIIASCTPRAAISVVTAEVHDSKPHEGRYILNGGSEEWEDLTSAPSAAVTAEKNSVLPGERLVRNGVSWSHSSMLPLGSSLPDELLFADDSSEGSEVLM
Assay [4] deals with Ribosomal protein S6 kinase alpha-5 (Homo sapiens) (UniProt O75582). Kind of assay: Inhibition of N-terminal RPS6KA5 kinase domain 1 (unknown origin) at 10 uM by Ambit Kinomescan binding assay relative to control.
Sequence of Ribosomal protein S6 kinase alpha-5 (Homo sapiens) (O75582 whole entry, looked up, the tested form may be a part): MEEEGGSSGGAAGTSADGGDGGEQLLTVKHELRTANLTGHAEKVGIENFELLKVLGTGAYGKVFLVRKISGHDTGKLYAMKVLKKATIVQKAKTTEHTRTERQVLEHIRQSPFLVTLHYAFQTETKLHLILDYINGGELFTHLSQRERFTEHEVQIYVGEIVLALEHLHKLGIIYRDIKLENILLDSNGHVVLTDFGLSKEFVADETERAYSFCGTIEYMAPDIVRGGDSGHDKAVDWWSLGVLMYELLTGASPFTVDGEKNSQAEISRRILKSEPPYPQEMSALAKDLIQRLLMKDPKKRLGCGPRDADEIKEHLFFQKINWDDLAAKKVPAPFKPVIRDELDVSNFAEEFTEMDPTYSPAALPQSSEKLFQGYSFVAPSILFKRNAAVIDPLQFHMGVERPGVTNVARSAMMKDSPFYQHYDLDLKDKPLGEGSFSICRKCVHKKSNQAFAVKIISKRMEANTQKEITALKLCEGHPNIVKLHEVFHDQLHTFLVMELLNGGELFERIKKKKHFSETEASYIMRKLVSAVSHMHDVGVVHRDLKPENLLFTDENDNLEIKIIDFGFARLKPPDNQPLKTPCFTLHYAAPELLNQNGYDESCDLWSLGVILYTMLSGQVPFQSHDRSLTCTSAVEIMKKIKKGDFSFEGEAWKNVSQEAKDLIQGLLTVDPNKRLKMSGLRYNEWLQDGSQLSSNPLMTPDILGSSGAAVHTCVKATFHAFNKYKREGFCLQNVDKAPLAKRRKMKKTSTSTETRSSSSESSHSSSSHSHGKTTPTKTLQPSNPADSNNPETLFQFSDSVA
Assay [5] concerns the target Cyclin-dependent kinase 20 (Homo sapiens) (UniProt Q8IZL9). Kind of assay: Inhibition of CCRK Lys2 labeling site in human A-375 cells at 5 uM by KiNativ Profiling analysis relative to control. It is filed as cell-based.
Assay [6] deals with T1, Mitogen-activated protein kinase kinase kinase 15 (Homo sapiens) (UniProt Q6ZN16).
T1 sequence (whole entry): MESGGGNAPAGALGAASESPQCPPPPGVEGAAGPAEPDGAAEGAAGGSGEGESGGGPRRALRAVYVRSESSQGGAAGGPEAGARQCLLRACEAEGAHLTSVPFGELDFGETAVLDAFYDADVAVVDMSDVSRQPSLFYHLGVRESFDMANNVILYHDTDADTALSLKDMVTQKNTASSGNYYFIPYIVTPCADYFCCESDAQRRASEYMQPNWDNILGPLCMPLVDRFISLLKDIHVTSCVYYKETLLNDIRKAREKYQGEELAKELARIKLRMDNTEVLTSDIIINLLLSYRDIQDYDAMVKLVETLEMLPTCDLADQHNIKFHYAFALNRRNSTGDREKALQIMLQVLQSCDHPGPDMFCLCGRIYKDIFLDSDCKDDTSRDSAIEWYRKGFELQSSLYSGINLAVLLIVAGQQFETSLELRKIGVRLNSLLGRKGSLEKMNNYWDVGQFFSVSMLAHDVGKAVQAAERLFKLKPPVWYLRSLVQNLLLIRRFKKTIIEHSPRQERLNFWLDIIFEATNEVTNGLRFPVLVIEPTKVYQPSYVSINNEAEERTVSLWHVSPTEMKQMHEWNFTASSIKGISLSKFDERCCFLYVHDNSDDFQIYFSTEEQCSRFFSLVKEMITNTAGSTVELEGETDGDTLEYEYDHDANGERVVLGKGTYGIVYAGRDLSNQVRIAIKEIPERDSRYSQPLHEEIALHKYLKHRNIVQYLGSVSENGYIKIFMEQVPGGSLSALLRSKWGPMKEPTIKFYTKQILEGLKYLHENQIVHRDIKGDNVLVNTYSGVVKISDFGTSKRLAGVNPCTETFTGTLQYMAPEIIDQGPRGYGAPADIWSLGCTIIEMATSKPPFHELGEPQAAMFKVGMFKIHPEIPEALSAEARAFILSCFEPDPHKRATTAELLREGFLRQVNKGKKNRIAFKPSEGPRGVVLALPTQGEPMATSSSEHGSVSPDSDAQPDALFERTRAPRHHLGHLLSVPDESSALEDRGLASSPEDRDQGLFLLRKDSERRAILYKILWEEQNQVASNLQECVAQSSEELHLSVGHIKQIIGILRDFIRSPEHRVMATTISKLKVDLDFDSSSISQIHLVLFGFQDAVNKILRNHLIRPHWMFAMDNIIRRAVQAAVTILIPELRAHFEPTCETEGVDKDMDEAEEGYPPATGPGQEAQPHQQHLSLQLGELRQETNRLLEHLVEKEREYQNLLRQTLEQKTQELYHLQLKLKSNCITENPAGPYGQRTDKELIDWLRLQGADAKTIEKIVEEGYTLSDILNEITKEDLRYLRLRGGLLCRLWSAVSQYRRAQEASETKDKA
Kind of assay: Inhibition of MAP3K15 Lys1 labeling site harbouring IAIKEIPERDSR in human A-375 cells at 0.05 uM by KiNativ Profiling analysis relative to control. Type of assay: cell-based.

In assay [7] the target is T2, Serine/threonine-protein kinase TAO1 (Homo sapiens) (UniProt Q7L7X3).
T2 sequence (whole entry): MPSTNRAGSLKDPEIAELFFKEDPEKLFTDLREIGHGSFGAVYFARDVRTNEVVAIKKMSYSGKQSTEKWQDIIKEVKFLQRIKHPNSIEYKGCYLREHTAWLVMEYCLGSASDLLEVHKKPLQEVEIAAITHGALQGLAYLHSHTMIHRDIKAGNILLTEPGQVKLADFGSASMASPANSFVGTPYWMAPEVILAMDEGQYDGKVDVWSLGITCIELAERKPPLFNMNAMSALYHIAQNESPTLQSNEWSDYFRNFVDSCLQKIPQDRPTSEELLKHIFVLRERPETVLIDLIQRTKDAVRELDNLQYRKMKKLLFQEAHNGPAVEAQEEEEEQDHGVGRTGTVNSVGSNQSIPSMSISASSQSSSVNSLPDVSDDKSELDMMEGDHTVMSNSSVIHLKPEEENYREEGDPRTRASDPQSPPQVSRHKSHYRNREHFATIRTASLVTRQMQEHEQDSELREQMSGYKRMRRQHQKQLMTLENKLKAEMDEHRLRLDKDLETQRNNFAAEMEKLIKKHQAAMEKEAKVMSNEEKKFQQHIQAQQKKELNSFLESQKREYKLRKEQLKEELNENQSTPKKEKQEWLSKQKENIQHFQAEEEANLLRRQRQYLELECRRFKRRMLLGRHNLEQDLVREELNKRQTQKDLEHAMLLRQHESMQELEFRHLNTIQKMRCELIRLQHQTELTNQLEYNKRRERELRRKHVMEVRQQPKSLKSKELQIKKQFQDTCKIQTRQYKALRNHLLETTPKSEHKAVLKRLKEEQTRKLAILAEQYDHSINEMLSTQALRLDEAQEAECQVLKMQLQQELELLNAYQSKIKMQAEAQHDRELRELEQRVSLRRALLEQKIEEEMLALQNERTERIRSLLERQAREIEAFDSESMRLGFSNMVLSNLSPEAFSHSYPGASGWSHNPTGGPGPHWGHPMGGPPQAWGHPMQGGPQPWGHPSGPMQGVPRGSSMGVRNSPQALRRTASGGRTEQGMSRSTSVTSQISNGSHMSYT
Kind of assay: Inhibition of TAOK1 (unknown origin) at 10 uM by Ambit Kinomescan binding assay relative to control; values are per cent of control.

Assay [8] deals with Cyclin-dependent kinase 9 (Homo sapiens) (UniProt P50750). Kind of assay: Inhibition of CDK9 Lys2 labeling site in human Huh-7 cells at 1 uM by KiNativ Profiling analysis relative to control. Type of assay: cell-based.
Sequence of Cyclin-dependent kinase 9 (Homo sapiens) (P50750 whole entry): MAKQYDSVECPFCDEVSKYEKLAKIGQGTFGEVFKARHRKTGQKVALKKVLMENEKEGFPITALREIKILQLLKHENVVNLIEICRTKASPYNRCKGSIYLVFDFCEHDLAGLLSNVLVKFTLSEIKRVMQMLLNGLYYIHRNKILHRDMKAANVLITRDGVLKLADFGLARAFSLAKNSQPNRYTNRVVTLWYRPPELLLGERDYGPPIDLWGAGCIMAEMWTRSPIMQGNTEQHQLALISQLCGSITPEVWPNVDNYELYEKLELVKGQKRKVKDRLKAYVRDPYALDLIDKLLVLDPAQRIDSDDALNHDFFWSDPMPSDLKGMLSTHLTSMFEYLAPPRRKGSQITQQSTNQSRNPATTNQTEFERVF

Sequence of Cyclin-dependent kinase 20 (Homo sapiens) (Q8IZL9 whole entry): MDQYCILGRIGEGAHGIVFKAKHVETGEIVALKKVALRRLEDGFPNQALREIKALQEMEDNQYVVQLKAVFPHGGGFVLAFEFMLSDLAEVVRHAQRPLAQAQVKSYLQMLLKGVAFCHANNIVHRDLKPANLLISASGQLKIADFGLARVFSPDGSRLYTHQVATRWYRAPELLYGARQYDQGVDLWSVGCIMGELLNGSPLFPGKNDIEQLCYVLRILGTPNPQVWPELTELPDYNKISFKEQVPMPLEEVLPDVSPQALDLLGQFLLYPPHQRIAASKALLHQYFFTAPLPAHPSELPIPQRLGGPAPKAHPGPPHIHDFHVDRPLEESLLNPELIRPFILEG
Sequence of Serine/threonine-protein kinase MARK1 (Homo sapiens) (Q9P0L2 whole entry, looked up): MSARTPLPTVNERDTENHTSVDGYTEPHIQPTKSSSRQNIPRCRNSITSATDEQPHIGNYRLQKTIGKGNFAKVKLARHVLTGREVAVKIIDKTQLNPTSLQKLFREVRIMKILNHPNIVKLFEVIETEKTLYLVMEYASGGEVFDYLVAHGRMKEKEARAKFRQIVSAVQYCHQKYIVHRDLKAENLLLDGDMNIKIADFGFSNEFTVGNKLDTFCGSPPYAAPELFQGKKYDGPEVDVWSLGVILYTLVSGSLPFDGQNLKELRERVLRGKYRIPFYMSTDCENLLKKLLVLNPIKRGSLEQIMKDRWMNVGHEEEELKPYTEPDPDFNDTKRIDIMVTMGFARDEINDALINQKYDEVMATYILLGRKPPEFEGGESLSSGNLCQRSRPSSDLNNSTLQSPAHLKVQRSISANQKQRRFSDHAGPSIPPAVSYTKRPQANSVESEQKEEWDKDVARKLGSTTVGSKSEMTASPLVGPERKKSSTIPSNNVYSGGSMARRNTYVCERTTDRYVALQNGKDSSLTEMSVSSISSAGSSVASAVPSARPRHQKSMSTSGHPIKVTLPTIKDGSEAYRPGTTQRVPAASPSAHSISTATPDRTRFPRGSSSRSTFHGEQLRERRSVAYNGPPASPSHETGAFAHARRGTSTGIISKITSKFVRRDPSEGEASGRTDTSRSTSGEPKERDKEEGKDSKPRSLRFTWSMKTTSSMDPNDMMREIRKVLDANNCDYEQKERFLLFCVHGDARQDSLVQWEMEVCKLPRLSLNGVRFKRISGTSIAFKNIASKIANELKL

For `CCN1CCN(Cc2ccc(NC(=O)c3ccc(C)c(/C=C/c4cnc5[nH]ccc5c4OC)c3)cc2C(F)(F)F)CC1`, the inhibition in assay [1] was found to be 13%. In assay [2], this compound registered a residual activity of 0.35%.
Take `CCN1CCN(Cc2ccc(NC(=O)c3ccc(C)c(Oc4ccnc5[nH]ccc45)c3)cc2C(F)(F)F)CC1`: the inhibition result in the assay on RAW is “Dose-Dependent Effect”; in assay [5], 4.5%; in [6], -3.3%. Also, the inhibition result in [3] and in assay [4] was “inactive” throughout. In assay [7], this compound showed a residual activity of 3%.
For `CNc1cc(Oc2cc(C(=O)Nc3cc(N4CCN(C)CC4)cc(C(F)(F)F)c3)ccc2C)ncn1`, the inhibition in assay [8] is 22.4%.
